Series [1] deals with HSV-1. Description: Anti-HSV-1 assay (XTT). Type of series: cell-based, herpes simplex virus type 1. The following applies: Human alphaherpesvirus 1; HSV-1 in Vero cells. An excerpt:
Anti-Herpes Simplex Type 1 Virus (HSV-1).
(§1) Determination of antiviral activity and cytotoxicity.

The subject of series [2] is Vero cells. Description: XTT cytotoxicity, Vero cells. The class given is cell-based, African green monkey. Background: Tetrazolium dyes change colour on reduction, which living cells bring about.
For series [3], the system named is Flu A. The experiment in a line: Anti-influenza A assay (XTT). The following applies: Influenza A virus; Flu A in MDCK cells. Type of series: cell-based, influenza virus type A.
Series [4] concerns Flu B. Description: Anti-influenza B assay (XTT). Type of series: cell-based, influenza virus type B. The following applies: Influenza B virus; Flu B in MDCK cells.
From the text: Anti-Influenza Type A and B Virus (Flu A & B). […] The influenza A/PR/8/34 (VR-95) and influenza B/Allen/45 (VR-102) was obtained from ATCC and a stock virus pool was produced in MDCK cells.
as §1

Series [5] deals with MDCK cells.
Series [6] relates to Zika. Description: Anti-Zika virus assay (XTT). The class given is cell-based. The note with it: Zika in Vero cells.
From the text: Anti-Zika Virus (Zika). […] Monolayers were approximately 70% confluent for the assay. Zika virus strain MR766 was obtained from ATCC (VR-84) and a stock virus pool was produced in LLCMK2 cells.
as §1

Series [7] has as its system HRV. Description: Anti-human rhinovirus assay (XTT). Type of series: cell-based. The following applies: Human rhinovirus sp.; HRV in H1-HeLa cells.
From the text: (§2) Anti-Human Rhinovirus (HRV).
as §1

In series [8] the test system is AdV. Description: Anti-adenovirus assay (XTT). The class given is cell-based. The note with it: unidentified adenovirus; AdV in HeLa cells.
From the text: as §1

In series [9] the test system is CoV. The experiment in a line: Anti-coronavirus assay (XTT). The class given is cell-based. The note with it: MRC5; CoV in MRC-5 cells.
From the text: as §1

For series [10], the system named is H1-HeLa cells. The experiment in a line: XTT cytotoxicity, H1-HeLa cells. The class given is cell-based. The following applies: HRV assay.
From the text: as §2, §1

In series [11] the test system is HeLa cells. The experiment in a line: XTT cytotoxicity, HeLa cells. The class given is cell-based. The note with it: AdV assay.
Series [12] relates to MRC-5 cells. The experiment in a line: XTT cytotoxicity, MRC-5 cells. The class given is cell-based. The following applies: MRC-5, CoV assay.
From the text: as §1

The subject of series [13] is HBV. The experiment in a line: Anti-HBV evaluation (qPCR of HBV DNA). Type of series: cell-based. The note with it: Hepatitis B virus; HBV in AD38 cells. The procedure: (§3) Anti-HBV evaluation. […] The test compound was serially diluted in the RPMI/FBS medium and added to the wells in triplicate (with six wells receiving medium alone as a virus only control). The plate was incubated for 6 days, with a change in medium (+/- compound) on Day 3. Supernatant (100 µL) was collected from each well for analysis of viral DNA by qPCR as described below and cytotoxicity was evaluated by XTT staining of the cell culture monolayer on the sixth day as described above.
Quantitative PCR detection of HBV DNA. Cell culture supernatant (10 µL) was diluted in qPCR dilution buffer (40 µg/mL sheared salmon sperm DNA) and boiled for 15 min. Quantitative real time PCR was performed in […] using an Applied Biosystems 7900HT Sequence Detection System and the supporting SDS 2.4 software. Samples (5 µL boiled DNA) and DNA standards were subjected to real time qPCR using Platinum Quantitative PCR SuperMix-UDG (Invitrogen) and specific DNA oligonucleotide primers (IDT, Coralville, […]) HBV-AD38-qF1 (5’-[…] -3’), HBV-AD38-qR1 (5’-AGT CCA AGA GTY CTC TTA TRY AAG ACC TT-3’), and HBV-AD38-qP1 (5’-FAM-CCG TGT GCA/ZEN/[…] -3’BHQ1) at a final concentration of 0.2 µM for each primer in a total reaction volume of 15 µL. […]
(Quantitative PCR measures a nucleic acid by following its amplification.)

The subject of series [14] is AD38 cells. The experiment in a line: XTT cytotoxicity, AD38 cells. The class given is cell-based. The following applies: AD38, HBV assay. As to the method: as §1, §3
Series [15] deals with HIV-1. The experiment in a line: Anti-HIV-1 assay (XTT). Type of series: cell-based, human immunodeficiency virus type 1. The following applies: Human immunodeficiency virus 1; HIV-1 in CEM-SS cells. As to the method:
Anti-Human Immunodeficiency Virus (HIV-1). CEM-SS cells were obtained from the NIH AIDS Research and Reference Reagent Program (Manassas, VA), resuspended at 5x10^4 cells per mL and 50 µL added to the microtiter plate wells. The lymphocyte-tropic virus strain HIV-1RF (obtained from the NIH AIDS Research and Reference Reagent Program and grown in CEM-SS cells for stock virus pools) was used for the assay.
as §1

In series [16] the test system is CEM-SS cells. Description: XTT cytotoxicity, CEM-SS cells. Type of series: cell-based. The note with it: HIV-1 assay.
The test system of series [17] is granulocyte macrophage (GM) human bone marrow progenitor cells. The experiment in a line: Bone marrow progenitor cell inhibition assay, GM. The class given is cell-based. The note with it: 14 days.
For series [18], the system named is erythroid (E) human bone marrow progenitor cells. The experiment in a line: Bone marrow progenitor cell inhibition assay, E. The following applies: 14 days. The class given is cell-based. An excerpt: Bone marrow progenitor cell inhibition assays. […] The resulting number of colonies (greater than 30 cells) were compared to control wells to determine the extent of cytotoxicity.

Structures can show the parent of a compound that is named as a salt. Where two headings read alike, the source gives them in different places.

In general, EC50 refers to the concentration giving half of the maximal effect. A higher EC50 goes with a less potent agent. The compound `Nc1nc2c(ncn2COCCO)c(=O)[nH]1` [Acyclovir] had an EC50 in [1] of 1760 nM. The compound further yielded a TC50 in series [2] (HSV-1 assay) above 100000 nM.
In the case of `CCOC(=O)C1=C[C@@H](OC(CC)CC)[C@H](NC(C)=O)[C@@H](N)C1` [Oseltamivir], the EC50 turned out to be 160 nM in series [3] and 420 nM in series [4]. Also, the TC50 in series [5] (Flu A assay) and in [5] (Flu B assay) was above 10000 nM throughout.
With `NC(=O)c1ncn([C@@H]2O[C@H](CO)[C@@H](O)[C@H]2O)n1` [Ribavirin], the EC50 in [6] came out at 5650 nM; in series [7] it was 17100 nM; in series [8], 760 nM; in series [9], 3850 nM. The TC50 in series [2] (Zika assay) is 38800 nM; in series [10] it was 40600 nM; in series [11], 11700 nM; in series [12], above 100000 nM.
In [13], `CC(C)OC(=O)OCOP(=O)(CO[C@H](C)Cn1cnc2c(N)ncnc21)OCOC(=O)OC(C)C` [TDF, tenofovir disoproxil fumarate] returned an EC50 of 230 nM. The same compound came in with a TC50 in series [14] above 1000 nM.
For `Cc1cn([C@H]2C[C@H](N=[N+]=[N-])[C@@H](CO)O2)c(=O)[nH]c1=O` [Zidovudine], the EC50 in [15] is 4 nM. For the same compound, the TC50 in series [16] is above 500 nM; in series [17] it was 1000 nM; in [18], 2000 nM.

Source of the values: PMC6949113, “Preclinical evaluation of AT-527, a novel guanosine nucleotide prodrug with potent, pan-genotypic activity against hepatitis C virus” (PLoS ONE, 2020).
